Here are results for seven molecules from PubChem BioAssay (NCI).

Molecules are shown by their SMILES.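 1) Cells in 96-well plates. 2) Compound, 48 h, 5 concentrations. 3) Linear interpolation between surrounding doses. 4) Unreached endpoint = highest concentration. GI50 marks 50% less growth. Definition used: TGI = concentration required for complete inhibition of growth.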

Holding throughout (experiment): NCI-60 cell line screen, 48 h
Assay [1] has as its system BT-549 breast.
Assay [2] relates to EKVX NSCLC.
Assay [3] has as its system CCRF-CEM leukemia.
Assay [4] has as its system MCF7 breast.
The subject of assay [5] is SR leukemia.
In assay [6] the test system is UACC-257 melanoma.
The subject of assay [7] is HOP-92 NSCLC.
Assay [8] relates to OVCAR-5 ovarian.
For assay [9], the system named is SF-295 CNS.
Assay [10] relates to NCI-H522 lung.

As to `NCCCNc1nc2ccccc2c2c(=O)c3cc(F)ccc3sc12`, the GI50 in assay [1] was 1.51 µM; in assay [2] it was 1.57 µM; in assay [3] it was 1.81 µM; in [4], 1.4 µM; in assay [5], 1.48 µM; in [6] it was 1.79 µM. The GI50 in assay [7] is 1.31 µM; in assay [8] it was 1.61 µM; in assay [9], 1.76 µM; in [10], 1.64 µM. For the same molecule, the TGI in assay [1] was 2.96 µM; in assay [2], 3.01 µM; in assay [3] it was 3.72 µM; in assay [4], 2.88 µM; in [5], 4.09 µM; in assay [6] it was 3.81 µM. Moreover, the TGI in [7] was determined as 3.33 µM; in [8], 3.05 µM; in assay [9], 3.21 µM; in assay [10], 3.45 µM.

With `COC(=O)c1c[nH]c2cc(OC(C)C)c(OC(C)C)cc2c1=O`, the GI50 in assay [1], in assay [2], in [3], in assay [4], in assay [5] and in [6] was > 100 µM in each case. The GI50 in assay [7], in [8] and in assay [10] was > 100 µM in each case. Besides, the TGI in assay [1], in assay [2], in assay [3], in assay [4], in [5] and in [6] was > 100 µM each time. Besides, the TGI in assay [7], in assay [8] and in [10] was > 100 µM in each case.

Regarding `COc1cc(OCc2ccccc2)c2c(CCC(=O)O)cc(=O)oc2c1` (tested in a mixture with another compound), the TGI in [1] is > 100 µM; in assay [2], > 100 µM; in [3], > 100 µM; in [4] it was 61.7 µM; in assay [5], > 100 µM; in assay [6], > 100 µM. For the same molecule, the TGI in assay [7], in assay [8] and in [10] was > 100 µM in each case.

Regarding `COC(=O)[C@]12CC[C@@H](C)[C@H](C)[C@@H]1C1=CC[C@@H]3[C@@]4(C)C(C=O)=C[C@@](C)(CO)[C@@H]4[C@H](O)C[C@@]3(C)[C@]1(C)CC2`, the GI50 is 3.27 µM in assay [1]; 4.03 µM in assay [2]; 3.73 µM in assay [3]; 2.44 µM in assay [4]; 1.92 µM in assay [5]; 3.11 µM in assay [6]. Further, the values for the GI50 in [7], in [8] and in assay [9] were 6.18 µM, 3.47 µM and 3.94 µM, respectively. For the same molecule, the TGI in assay [1] turned out to be 14.1 µM; in assay [2], 16 µM; in [3] it was 13.7 µM; in [4], 10.3 µM; in assay [5], 6.74 µM; in assay [6], 13.1 µM. The values for the TGI in assay [7], in assay [8] and in assay [9] were 20.9 µM, 17.9 µM and 16.5 µM, respectively.

As to `Cc1ccc(N(C=O)c2c([N+](=O)[O-])cc([N+](=O)[O-])c3c2=[N+]([O-])CN=3)cc1`, the TGI in assay [1] was 69 µM; in assay [2], > 100 µM; in assay [4] it was 57.7 µM; in assay [5] it was > 100 µM; in assay [6], 58 µM; in [7], 60.1 µM. For the same molecule, the TGI in assay [8] is > 100 µM; in assay [9], > 100 µM; in [10] it was 48.2 µM.

As to `Nc1ccccc1C#C/C=C\C#Cc1ccccc1C#CCO`, the GI50 was 10.9 µM in assay [1]; 12 µM in assay [2]; 7.87 µM in [4]; 0.405 µM in assay [5]; 11.4 µM in assay [6]; 11.9 µM in assay [7]. The GI50 was 16.8 µM in [8], 6.8 µM in assay [9] and 11.8 µM in assay [10]. For the same molecule, the TGI was 41.6 µM in assay [1]; > 50 µM in [2]; > 50 µM in assay [4]; > 50 µM in assay [5]; 45.2 µM in assay [6]; > 50 µM in assay [7]. Also, the figures for the TGI in assay [8], in [9] and in assay [10] were > 50 µM, 16.7 µM and 28.2 µM, respectively.

As for `O=C(/C=C/c1ccccc1)c1cccc2ccccc12`, the GI50 is 2.31 µM in assay [1]; 2.75 µM in [2]; 2.71 µM in assay [3]; 3.07 µM in assay [4]; 1.17 µM in assay [5]; 4.13 µM in assay [6]. The results for the GI50 in [7], in assay [8] and in assay [10] were 2.05 µM, 3.78 µM and 2.75 µM, respectively. The TGI came to 5.86 µM in assay [1]; 12.6 µM in [2]; 17.8 µM in [3]; 11.1 µM in assay [4]; 3.75 µM in [5]; 15.5 µM in assay [6]. Further, the TGI in assay [7] was 6.8 µM; in assay [8], 17.4 µM; in [10] it was 8.41 µM.
